# Results: US9662318B2, “Bitopic muscarinic agonists and antagonists and methods of synthesis and use thereof” (BARRY UNIVERSITY, INC., priority 2012, dated 2017)
# Where a name gives a salt, the structure may show the parent alone.
# Key:
# M4 muscarinic receptor [1] = molecular target: T1, M4 muscarinic receptor (Homo sapiens, UniProt P08173); assay: Competition with [3H]NMS (equilibrium binding, CHO membranes); settings: read-out: Binding Equilibrium Constants (expressed as pKI) (converted)
# T1 construct: host or cells: Chinese hamster ovary cells
# T1 sequence (P08173 1-479): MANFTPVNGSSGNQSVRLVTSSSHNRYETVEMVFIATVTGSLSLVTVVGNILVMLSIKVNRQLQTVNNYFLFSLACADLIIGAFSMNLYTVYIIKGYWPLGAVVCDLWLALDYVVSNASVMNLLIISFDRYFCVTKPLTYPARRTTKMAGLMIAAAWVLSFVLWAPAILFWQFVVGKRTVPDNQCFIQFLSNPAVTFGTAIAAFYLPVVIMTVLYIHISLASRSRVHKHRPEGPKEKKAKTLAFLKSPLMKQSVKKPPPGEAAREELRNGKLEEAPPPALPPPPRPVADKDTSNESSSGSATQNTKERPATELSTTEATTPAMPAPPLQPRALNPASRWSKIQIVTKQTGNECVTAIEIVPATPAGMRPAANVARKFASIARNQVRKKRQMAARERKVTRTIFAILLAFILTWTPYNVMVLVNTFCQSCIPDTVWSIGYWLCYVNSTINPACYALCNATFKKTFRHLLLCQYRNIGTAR
# Protocol: (§1) All radioligand binding experiments were optimized and carried out as described earlier. Briefly, membranes were incubated in 96-well plates at 30° C. in the incubation medium described. […] Dissociation was initiated by addition of atropine to final concentration of 5 Tested ligands in final concentration of 100 μM were added concurrently with atropine. Incubations were terminated by filtration through Whatman GF/C glass fiber filters (Whatman) using a Brandel cell harvester (Brandel, Gaithersburg, Md., USA). Filters were dried in vacuum for 1 h while heated at 80° C. and then solid scintillator Meltilex A was melted on filters (105° C., 90 s) using a hot plate. The filters were cooled and counted in Wallac Microbeta scintillation counter.
# (§2) Inhibition constant KI was calculated as: […]
# M1 muscarinic receptor [2] = molecular target: T2, M1 muscarinic receptor (Homo sapiens, UniProt P11229); assay: as above; settings: for Ki: read-out: Binding Equilibrium Constants (expressed as pKI) (converted)
# T2 sequence (P11229 1-460): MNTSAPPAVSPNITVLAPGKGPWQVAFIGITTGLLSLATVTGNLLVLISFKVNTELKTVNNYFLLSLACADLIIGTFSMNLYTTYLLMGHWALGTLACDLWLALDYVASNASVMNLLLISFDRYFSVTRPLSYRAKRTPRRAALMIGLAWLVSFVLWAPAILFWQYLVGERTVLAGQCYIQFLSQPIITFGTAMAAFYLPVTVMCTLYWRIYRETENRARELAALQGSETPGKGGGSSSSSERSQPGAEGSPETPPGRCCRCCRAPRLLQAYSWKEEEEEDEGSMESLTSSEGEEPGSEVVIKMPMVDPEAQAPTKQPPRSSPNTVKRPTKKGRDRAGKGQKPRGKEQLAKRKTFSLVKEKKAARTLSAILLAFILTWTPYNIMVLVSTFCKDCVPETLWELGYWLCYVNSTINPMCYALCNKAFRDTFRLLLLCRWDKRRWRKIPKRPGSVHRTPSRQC
# Protocol: as §1, §2
# M3 muscarinic receptor [3] = molecular target: T3, M3 muscarinic receptor (Homo sapiens, UniProt P20309); assay: as above; settings: read-out: Binding Equilibrium Constants (expressed as pKI) (converted)
# T3 construct: host or cells: Chinese hamster ovary cells
# Protocol: as §1, §2
# M3 muscarinic receptor [4] = molecular target: T3, M3 muscarinic receptor; assay: Accumulation of inositol phosphates in CHO cells; assay type: cell-based; settings: ligand 0.1 mM, no carbachol
# Protocol: (§3) Chinese hamster ovary cells stably transfected with the genes of human variants of muscarinic receptors were purchased from Missouri S&T cDNA Resource Center (Rolla, Mo., USA). […] Cells were grown to confluency in 75 cm^2 flasks in Dulbecco's modified Eagle's medium supplemented with 10% fetal bovine serum and 2 million of cells were subcultured to 100 mm Petri dishes. Medium was supplemented with 5 mM butyrate for the last 24 hours of cultivation to increase receptor expression.
# (§4) Inositolphosphates formation was determined in cells pre-labeled overnight by 0.5 μM [^3H]myo-inositol in 0.3 mL of DMEM (3 μCi/ml) at 37° C. […] Incubation was stopped by removal of incubation buffer and addition 0.2 mL 20% trichloracetic acid (TCA). After 1 h incubation at 4° C., 100 μL, of TCA extracts were taken for measurement. Rest of the TCA was removed, and TCA precipitates were washed with 200 μL TCA and dissolved in 200 μL of 1 M NaOH. After 1 h incubation at 4° C., 100 μL, of NaOH lysates were taken for measurement. Radioactivity in TCA extracts and NaOH lysates were determined by liquid scintillation counting. The rate of inositolphosphates accumulation was calculated as a percentage of the soluble (released) inositolphosphates from the total incorporated radioactivity (sum of radioactivity in NaOH lysates and TCA extracts).
# (§5) EC50 values are expressed as negative logarithms and EMAX values as folds over basal, Table 7.
# M4 muscarinic receptor [5] = molecular target: T1, M4 muscarinic receptor; assay: Accumulation of inositol phosphates in CHO cells; assay type: cell-based; settings: for Effect of ligands on basal activity (accumulation of inositol phosphates as percent of accumulation in the absence of the ligand): M4, ligand 0.1 mM, no carbachol
# Protocol: as §3, §4, §5
# M5 muscarinic receptor [6] = molecular target: T4, M5 muscarinic receptor (Homo sapiens, UniProt P08912); assay: Competition with [3H]NMS (equilibrium binding, CHO membranes); settings: read-out: Binding Equilibrium Constants (expressed as pKI) (converted)
# T4 construct: host or cells: CHO (Chinese hamster ovary) cells, stably transfected
# T4 sequence (P08912 1-532): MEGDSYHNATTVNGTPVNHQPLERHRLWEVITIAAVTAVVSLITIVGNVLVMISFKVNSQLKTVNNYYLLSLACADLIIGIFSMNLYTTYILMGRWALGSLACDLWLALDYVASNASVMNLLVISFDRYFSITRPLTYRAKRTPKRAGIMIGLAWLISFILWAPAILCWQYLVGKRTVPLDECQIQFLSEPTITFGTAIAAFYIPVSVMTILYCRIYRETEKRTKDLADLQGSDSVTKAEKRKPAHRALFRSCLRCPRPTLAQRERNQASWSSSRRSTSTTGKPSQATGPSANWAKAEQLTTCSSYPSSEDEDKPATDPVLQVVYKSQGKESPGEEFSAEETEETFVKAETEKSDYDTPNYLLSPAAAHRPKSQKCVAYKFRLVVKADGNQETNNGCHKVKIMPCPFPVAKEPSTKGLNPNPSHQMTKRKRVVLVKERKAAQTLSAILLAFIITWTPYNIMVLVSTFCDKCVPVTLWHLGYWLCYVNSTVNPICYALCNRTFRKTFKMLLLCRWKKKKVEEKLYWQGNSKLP
# Protocol: as §1, §2
# [7] = system: M1-M5 muscarinic receptors; assay: Accumulation of inositol phosphates, statements over all subtypes; assay type: cell-based, human; settings: for basal functional response (in the absence of carbachol): 0.1 mM, at all receptor subtypes; for functional selectivity of antagonism: from shifts in carbachol EC50, Table 6
# Protocol: Antagonism of tested compounds was determined at single high concentration of 0.1 mM.
# M1 muscarinic receptor [8] = molecular target: T2, M1 muscarinic receptor; assay: Accumulation of inositol phosphates in CHO cells; assay type: cell-based; settings: ligand 0.1 mM, no carbachol
# Protocol: as §3, §4, §5
# M5 muscarinic receptor [9] = molecular target: T4, M5 muscarinic receptor; assay: Accumulation of inositol phosphates in CHO cells; assay type: cell-based; settings: for Effect of ligands on basal activity (accumulation of inositol phosphates as percent of accumulation in the absence of the ligand): M5, ligand 0.1 mM, no carbachol
# Protocol: as §3, §4, §5
# [10] = system: M1-M5 muscarinic receptors; assay: Competition with [3H]NMS, statements over all subtypes; assay type: binding, human; settings: versus other subtypes; from pKI, Table 4
# M5 muscarinic receptor [11] = molecular target: T4, M5 muscarinic receptor; assay: [3H]NMS saturation binding; settings: M5 CHO membranes; binding sites per mg of membrane protein
# T3 sequence (P20309 whole entry): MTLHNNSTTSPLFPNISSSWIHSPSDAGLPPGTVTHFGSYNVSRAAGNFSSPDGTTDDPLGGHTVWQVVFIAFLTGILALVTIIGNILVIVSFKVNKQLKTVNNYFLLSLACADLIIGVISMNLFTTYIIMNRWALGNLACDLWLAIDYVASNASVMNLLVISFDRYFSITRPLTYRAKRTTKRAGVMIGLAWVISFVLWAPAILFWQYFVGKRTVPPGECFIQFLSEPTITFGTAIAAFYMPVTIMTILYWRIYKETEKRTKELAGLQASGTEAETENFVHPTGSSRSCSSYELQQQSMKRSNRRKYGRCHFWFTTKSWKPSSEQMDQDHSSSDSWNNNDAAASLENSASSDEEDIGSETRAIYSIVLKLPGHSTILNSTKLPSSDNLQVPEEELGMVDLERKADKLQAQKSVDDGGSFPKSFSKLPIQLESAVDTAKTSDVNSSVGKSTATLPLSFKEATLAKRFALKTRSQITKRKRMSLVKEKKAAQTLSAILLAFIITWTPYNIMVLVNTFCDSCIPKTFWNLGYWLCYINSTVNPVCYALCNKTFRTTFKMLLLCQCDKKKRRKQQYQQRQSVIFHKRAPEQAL
Structure (SMILES),Ki (M4 muscarinic receptor [1]),Ki (M1 muscarinic receptor [2]),Ki (M3 muscarinic receptor [3]),Effect of ligands on basal activity (accumulation of inositol phosphates as percent of accumulation in the absence of the ligand) (M3 muscarinic receptor [4]),Effect of ligands on basal activity (accumulation of inositol phosphates as percent of accumulation in the absence of the ligand) (M4 muscarinic receptor [5]),Ki (M5 muscarinic receptor [6]),"higher affinity for M1 receptor (M1 muscarinic receptor [2]; versus other subtypes, from pKI, Table 4)",basal functional response (in the absence of carbachol) [7],functional selectivity of antagonism [7],Effect of ligands on basal activity (accumulation of inositol phosphates as percent of accumulation in the absence of the ligand) (M1 muscarinic receptor [8]),Effect of ligands on basal activity (accumulation of inositol phosphates as percent of accumulation in the absence of the ligand) (M5 muscarinic receptor [9]),higher affinity for the M2 and M5 receptors [10],BMAX (M5 muscarinic receptor [11]),"EMAX (M5 muscarinic receptor [9]; M5 CHO cells, accumulation of inositol phosphates)","EMAX (M4 muscarinic receptor [5]; M4 CHO cells, accumulation of inositol phosphates)"
"CCCCOc1ccc(C(=O)OCCN2CC=CCC2)cc1 [Compound 9a, 2-(1,2,5,6-tetrahydropyridine-N-ethyl)-4-butoxybenzoate hydrochloride]",12.6 µM,6.31 µM,7.94 µM,100 ± 1%,100 ± 6%,–,–,–,–,–,–,–,–,–,–
"CCCCc1ccc(C(=O)OCCN2CC=CCC2)cc1 [Compound 9b, 2-(1,2,5,6-tetrahydropyridine-N-ethyl)-4-butylbenzoate hydrochloride]",25.1 µM,7.94 µM,15.8 µM,81 ± 5 %,73 ± 6 %,25.1 µM,two to three-fold,lowered basal functional response,M1/M4 functionally selective antagonists,85 ± 4 %,88 ± 3 %,–,–,–,–
"CCCCOc1ccc(C(=O)OCC[N+]2(C)CC=CCC2)cc1 (stereo not drawn) [Compound 10a, 2-(1,2,5,6-tetrahydropyridine-N-ethyl)-4-butoxybenzoate N-methyl iodide]",7.94 µM,2.51 µM,6.31 µM,74 ± 3 %,74 ± 7 %,3.16 µM,–,lowered basal functional response,–,83 ± 3 %,89 ± 3 %,–,–,–,–
"CCCCc1ccc(C(=O)OCC[N+]2(C)CC=CCC2)cc1 (stereo not drawn) [Compound 10b, 2-(1,2,5,6-tetrahydropyridine-N-ethyl)-4-butylbenzoate N-methyl iodide]",3.98 µM,2.51 µM,3.98 µM,–,–,1.58 µM,–,–,–,98 ± 9%,90 ± 10%,–,–,–,–
"CCCCCCOc1ccc(C(=O)OCC[N+]2(C)CC=CCC2)cc1 (stereo not drawn) [Compound 10c, 2-(1,2,5,6-tetrahydropyridine-N-ethyl)-4-hexoxybenzoate N-methyl iodide]",0.398 µM,–,0.398 µM,101 ± 1%,100 ± 2%,0.158 µM,–,–,–,101 ± 1%,101 ± 1%,one to three fold,–,–,–
"CCCCc1ccc(C(=O)OCC[N+]2(C)CCCCC2)cc1 [Compound 13b, 2-(N-Piperidineethyl) p-butylbenzoyl ester N-methyl iodide]",3.98 µM,3.16 µM,2.04 µM,104 ± 4%,107 ± 4%,2.45 µM,–,–,M1/M5 functionally selective,104 ± 4%,104 ± 4%,–,–,–,–
CCCCc1ccc(C(=O)OCCN2CCCCC2)cc1 [Compound 14b],9.77 µM,3.98 µM,6.31 µM,103 ± 3%,106 ± 1%,5.01 µM,–,–,M1/M3 functionally selective antagonist,103 ± 3%,103 ± 3%,–,–,–,–
"C[N+]1(C)[C@@H]2C[C@@H](OC(=O)[C@H](CO)c3ccccc3)C[C@H]1[C@@H]1O[C@@H]12 [NMS, N-methyl scopolamine]",–,–,–,–,–,–,–,–,–,–,–,–,1.0 ± 0.1 pmol/mg,–,–
"C[N+](C)(C)CCOC(N)=O [carbachol, Carbachol, reference compound]",–,–,–,–,–,–,–,–,–,–,–,–,–,2.5 ± 0.2 fold over basal,3.3 ± 0.3 fold over basal
